Test results taken from PubChem BioAssay AID342 (DTP/NCI, 2004).
Several values for one entry are separate records, joined by “and”; a condition that tells them apart may be missing. Equal values may be shown once. Numbered stars: 1 amine (or outer) side, 2 acyl side, 3 side chain; on linkers, the order of the positions; unused ones are H or OH. Bridge positions count the residues as written; N and C are the ends. Square brackets hold non-standard residues; d marks the D form. Peptide text beside a SMILES is read from it. * marks the point of attachment. X1 = CC(C)C(C)C(C(=O)[*:2])N(C)[*:1]; Picolinoyl(3-OH) = O=C(c1ncccc1O)*; NMePhg = CN[CH](C(=O)O)c1ccccc1; Hyp = O=C(O)[CH]1C[CH](O)CN1; Sar = CNCC(=O)O

Test system: Swiss mice, Sarcoma 180 sc, mean tumor weight T/C
Assay: NCI In Vivo Anticancer Drug Screen. Data for tumor model Sarcoma 180 (subcutaneous) in Swiss mice
Conditions: endpoint: mean tumor weight, higher = larger tumour
In short: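 Transplantable tumors were established in mice, compound was given, then survival or tumor size was recorded. The treated value was divided by the vehicle-control value.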

[1] = dose: 100.0 mg/kg/injection, schedule: Q01DX007 (ip), vehicle: carboxymethylcellulose (CMC)
[2] = dose: 50.0 mg/kg/injection, schedule: Q01DX007 (ip), vehicle: carboxymethylcellulose (CMC)

COc1ccccc1NC(=O)CSC(N)=O
T/C (dose: 110.0 mg/kg/injection, schedule: Q01DX007 (ip), vehicle: carboxymethylcellulose (CMC)): 78 % of control | T/C (dose: 165.0 mg/kg/injection, schedule: Q01DX007 (ip), vehicle: carboxymethylcellulose (CMC)): 74 % of control | T/C (dose: 250.0 mg/kg/injection, schedule: Q01DX007 (ip), vehicle: carboxymethylcellulose (CMC)): 61 % of control | T/C (dose: 375.0 mg/kg/injection, schedule: Q01DX007 (ip), vehicle: carboxymethylcellulose (CMC)): 28 % of control

O=[N+]([O-])c1ccc(/C=N\Nc2ccc([N+](=O)[O-])cn2)cc1
T/C (dose: 5.1 mg/kg/injection, schedule: Q#A X014 (ip), vehicle: methylcellulose (MC)): 88 % of control | T/C (dose: 10.25 mg/kg/injection, schedule: Q#A X014 (ip), vehicle: methylcellulose (MC)): 61 % of control | T/C (dose: 12.0 mg/kg/injection, schedule: Q#A X014 (ip), vehicle: methylcellulose (MC)): 98 % of control | T/C (dose: 20.55 mg/kg/injection, schedule: Q#A X014 (ip), vehicle: methylcellulose (MC)): 64 % of control | T/C (dose: 41.1 mg/kg/injection, schedule: Q#A X014 (ip), vehicle: methylcellulose (MC)): 47 % of control

CCCCn1cnc2c(=S)nc(N)[nH]c21
T/C (dose: 1.65 mg/kg/injection, schedule: Q#A X014 (ip), vehicle: methylcellulose (MC)): 82 % of control | T/C (dose: 2.5 mg/kg/injection, schedule: Q#A X014 (ip), vehicle: methylcellulose (MC)): 93 % of control | T/C (dose: 3.75 mg/kg/injection, schedule: Q#A X014 (ip), vehicle: methylcellulose (MC)): 62 % of control | T/C (dose: 5.5 mg/kg/injection, schedule: Q#A X014 (ip), vehicle: methylcellulose (MC)): 49 % of control

CC(=O)OCC(=O)[C@@]1(O)CC[C@H]2[C@@H]3CCC4=CC(=O)C=C[C@]4(C)[C@H]3[C@@H](O)C[C@@]21C
T/C (dose: 13.3 mg/kg/injection, schedule: Q01DX007 (sc), vehicle: steriod suspending solution): 73 % of control | T/C (dose: 20.0 mg/kg/injection, schedule: Q01DX007 (sc), vehicle: steriod suspending solution): 62 % of control | T/C (dose: 30.0 mg/kg/injection, schedule: Q01DX007 (sc), vehicle: steriod suspending solution): 51 % of control | T/C (dose: 45.0 mg/kg/injection, schedule: Q01DX007 (sc), vehicle: steriod suspending solution): 23 % of control

O=C(Nc1ccc(C2=NCCCN2)cc1)c1ccc(NC(=O)c2ccc(C3=NCCCN3)cc2)cc1
T/C (dose: 8.0 mg/kg/injection, schedule: Q01DX007 (ip), vehicle: carboxymethylcellulose (CMC)): 78 % of control | T/C (dose: 16.0 mg/kg/injection, schedule: Q01DX007 (ip), vehicle: carboxymethylcellulose (CMC)): 73 % of control

COC(=O)C1=COC(C)C2CN3CCc4c([nH]c5cc(OC)ccc45)C3CC12 (stereo unspecified)
T/C (dose: 50.0 mg/kg/injection, schedule: Q01DX007 (ip), vehicle: other): 91 % of control | T/C (dose: 100.0 mg/kg/injection, schedule: Q01DX007 (ip), vehicle: other): 89 % of control | T/C (dose: 200.0 mg/kg/injection, schedule: Q01DX007 (ip), vehicle: other): 75 % of control

OCC(F)(F)C(F)(F)C(F)(F)F
T/C (dose: 222.0 mg/kg/injection, schedule: Q01DX007 (ip), vehicle: other): 56 % of control | T/C (dose: 250.0 mg/kg/injection, schedule: Q01DX007 (ip), vehicle: saline): 74 % of control | T/C (dose: 333.0 mg/kg/injection, schedule: Q01DX007 (ip), vehicle: other): 82 % of control | T/C (dose: 500.0 mg/kg/injection, schedule: Q01DX007 (ip), vehicle: other): 56 % of control | T/C (dose: 750.0 mg/kg/injection, schedule: Q01DX007 (ip), vehicle: other): 90 % of control

O=C1C=CC(=O)N1c1ccc2c(c1)C(Br)c1ccccc1-2 (stereo unspecified)
T/C (dose: 3.0 mg/kg/injection, schedule: Q#A X014 (ip), vehicle: carboxymethylcellulose (CMC)): 97 % of control | T/C (dose: 5.5 mg/kg/injection, schedule: Q#A X014 (ip), vehicle: carboxymethylcellulose (CMC)): 73 % of control | T/C (dose: 11.0 mg/kg/injection, schedule: Q#A X014 (ip), vehicle: carboxymethylcellulose (CMC)): 109 % of control | T/C (dose: 11.0 mg/kg/injection, schedule: Q#A X014 (ip), vehicle: methylcellulose (MC)): 45 % of control and 52 % of control | T/C (dose: 16.5 mg/kg/injection, schedule: Q#A X014 (ip), vehicle: carboxymethylcellulose (CMC)): 102 % of control | T/C (dose: 16.5 mg/kg/injection, schedule: Q#A X014 (ip), vehicle: methylcellulose (MC)): 32 % of control and 50 % of control | T/C (dose: 25.0 mg/kg/injection, schedule: Q#A X014 (ip), vehicle: carboxymethylcellulose (CMC)): 99 % of control | T/C (dose: 25.0 mg/kg/injection, schedule: Q#A X014 (ip), vehicle: methylcellulose (MC)): 40 % of control | T/C (dose: 37.5 mg/kg/injection, schedule: Q#A X014 (ip), vehicle: carboxymethylcellulose (CMC)): 89 % of control

[O]=[V]
T/C (dose: 7.5 mg/kg/injection, schedule: Q01DX007 (sc), vehicle: olive oil, sesame oil, peanut oil): 94 % of control | T/C (dose: 15.0 mg/kg/injection, schedule: Q01DX007 (sc), vehicle: olive oil, sesame oil, peanut oil): 89 % of control | T/C (dose: 30.0 mg/kg/injection, schedule: Q01DX007 (sc), vehicle: olive oil, sesame oil, peanut oil): 100 % of control

CCC(=O)O[C@H]1CC[C@H]2[C@@H]3CC[C@H]4CC(=O)[C@H](C)C[C@]4(C)[C@H]3CC[C@]12C
T/C (dose: 125.0 mg/kg/injection, schedule: Q01DX007 (sc), vehicle: steriod suspending solution): 77 % of control | T/C (dose: 250.0 mg/kg/injection, schedule: Q01DX007 (sc), vehicle: steriod suspending solution): 101 % of control | T/C (dose: 500.0 mg/kg/injection, schedule: Q01DX007 (sc), vehicle: steriod suspending solution): 121 % of control | T/C (dose: 1000.0 mg/kg/injection, schedule: Q01DX007 (sc), vehicle: steriod suspending solution): 62 % of control

c1ccc(N2N=C3N(c4ccccc4)C2N3c2ccccc2)cc1
T/C (dose: 15.0 mg/kg/injection, schedule: Q01DX007 (ip), vehicle: other): 114 % of control | T/C (dose: 31.0 mg/kg/injection, schedule: Q01DX007 (ip), vehicle: other): 72 % of control

CCCCCCCCCCCCO[P+](=O)OCCCCCCCCCCCC
T/C [1]: 111 % of control | T/C (dose: 111.0 mg/kg/injection, schedule: Q#A X014 (ip), vehicle: carboxymethylcellulose (CMC)): 45 % of control | T/C (dose: 222.0 mg/kg/injection, schedule: Q01DX007 (ip), vehicle: carboxymethylcellulose (CMC)): 47 % of control and 71 % of control | T/C (dose: 250.0 mg/kg/injection, schedule: Q#A X014 (ip), vehicle: carboxymethylcellulose (CMC)): 25 % of control | T/C (dose: 300.0 mg/kg/injection, schedule: Q01DX007 (ip), vehicle: carboxymethylcellulose (CMC)): 32 % of control | T/C (dose: 333.0 mg/kg/injection, schedule: Q01DX007 (ip), vehicle: carboxymethylcellulose (CMC)): 63 % of control and 65 % of control | T/C (dose: 375.0 mg/kg/injection, schedule: Q#A X014 (ip), vehicle: carboxymethylcellulose (CMC)): 20 % of control | T/C (dose: 500.0 mg/kg/injection, schedule: Q01DX007 (ip), vehicle: carboxymethylcellulose (CMC)): 42 % of control and 50 % of control | T/C (dose: 750.0 mg/kg/injection, schedule: Q01DX007 (ip), vehicle: carboxymethylcellulose (CMC)): 12 % of control

CN(CC#N)/N=N/c1nc[nH]c1C(N)=O
T/C (dose: 225.0 mg/kg/injection, schedule: Q01DX007 (ip), vehicle: carboxymethylcellulose (CMC)): 38 % of control

CC(C)CC1NC(=O)C(NC(=O)c2ncccc2O)C(C)OC(=O)C(c2ccccc2)N(C)C(=O)C(C)NC(=O)C(C(C)C(C)C)N(C)C(=O)CN(C)C(=O)C2CC(O)CN2C1=O (stereo unspecified) ({Picolinoyl(3-OH)}-TL[Hyp][Sar][X1]A[NMePhg]; ester 1-C; configuration not given here)
T/C (dose: 6.25 mg/kg/injection, schedule: Q01DX007 (ip), vehicle: carboxymethylcellulose (CMC)): 85 % of control | T/C (dose: 25.0 mg/kg/injection, schedule: Q01DX007 (ip), vehicle: carboxymethylcellulose (CMC)): 106 % of control | T/C [2]: 114 % of control | T/C (dose: 75.0 mg/kg/injection, schedule: Q01DX007 (ip), vehicle: carboxymethylcellulose (CMC)): 67 % of control | T/C [1]: 100 % of control | T/C (dose: 200.0 mg/kg/injection, schedule: Q01DX007 (ip), vehicle: carboxymethylcellulose (CMC)): 98 % of control

O=C(Nc1ccc(Sc2ccc(N=Nc3c(O)c(S(=O)(=O)O)cc4cc(S(=O)(=O)O)ccc34)cc2)cc1)c1ccc(N=Nc2ccc3c(S(=O)(=O)O)cccc3c2O)cc1
T/C (dose: 55.0 mg/kg/injection, schedule: Q01DX007 (ip), vehicle: carboxymethylcellulose (CMC)): 68 % of control and 78 % of control | T/C (dose: 84.0 mg/kg/injection, schedule: Q01DX007 (ip), vehicle: carboxymethylcellulose (CMC)): 72 % of control and 75 % of control | T/C (dose: 125.0 mg/kg/injection, schedule: Q01DX007 (ip), vehicle: carboxymethylcellulose (CMC)): 28 % of control | T/C (dose: 188.0 mg/kg/injection, schedule: Q01DX007 (ip), vehicle: carboxymethylcellulose (CMC)): 25 % of control

N#CCOC(=O)CCC(NC(=O)OCc1ccccc1)C(N)=O (stereo unspecified)
T/C [2]: 94 % of control
